# “And” between values parts separate entries of the source, which are not always exact repeats. Equal entries are not always repeated. “Also recorded” adds a separate entry of the source. Where two headings read alike, the source gives them in different places.
# Key:
# [1] = test system: human sperm
# Experimental: (§1) Sperm were isolated from the seminal plasma as previously described in Brown et al., 1995. The sperm pellet was resuspended in phosphate buffered saline (PBS), pH=7.4, and divided into 4 aliquots. Each aliquot (equal sperm concentrations) was incubated at 37° C. in PBS with H2O2 concentrations of 0, 10, 50, and 100 μM for 15 min and 1 hr. All aliquots were divided into 2 portions. One portion was used to determine LPO. The remaining portion was centrifuged at 1500 g for 15 min. at room temperature, the sperm in the pellet resuspended and analyzed in the HSAA.
# [2] = test system: sperm; conditions: comet assay; cited from earlier work
# [3] = test system: human sperm; remark: listed apart in the source
# Experimental: as §1
# The HSAA was performed as described by Brown et al. 1995. Briefly, sperm are washed and permeabilized using lysolecithine.
# (§2) In a micro-centrifuge tube, the reaction mix was prepared; 8 μl of sperm suspension (200,000 sperm) was added to 100 μLof frog egg extract that contained 8 μl of ^3H-TTP (8 μCi). At 5 and 15 min, and 2 and 3 hr incubation times in the egg extract, 5 μl aliquots were taken, wet mounts prepared, and phase contrast microscopy used to determine the percentage of sperm that were fully decondensed and recondensed, respectively, scoring 50 nuclei per slide. At the 5 and 15 min, and 2 and 3 hr time points, 25 μl aliquots of the reaction mix was removed and mixed with 75 μl PBS. Two 50 μl cytopreps were made for each aliquote as described by Brown et al., 1992. The dried cytopreps were fixed in one part acetic acid, and three parts cold methanol, and Giemsa stained for 1 hr followed by a 10 min wash in Giemsa buffer. Slides were examined using light microscopy and analyzed using Metamorph software. Autoradiography was performed using cytoprep slides as described by Brown et al. 1995.
# Sperm chromatin decondensation and nuclear recondensation were evaluated in sperm exposed to increasing concentrations of H2O2 for 15 min and 1 hr using the HSAA. Sperm were analyzed at different incubation times in the egg extract using the image analysis Methamorph software system. The sperm nuclear activation was scored in 5 categories (FIG. 2): 1) full decondensation: sperm diameter 25-30 μm (FIG. 2C), 2) partial decondensation: sperm diameter <25 μm (FIG. 2B), 3) non-decondensed (FIG. 2A), 4) hyperdecondensed: sperm diameter >(25-30 μm) [FIGS. 2b and c], and 5) full recondensation (FIGS. 2D and E).
# [4] = test system: human sperm; remark: listed apart in the source
# Experimental: Thymidine incorporation into sperm was scored as follows: unlabeled (less than 5 black granules), medium label (from 5 to 25 black granules), and heavy label (more than 25 black granules). Each value is the mean±SD. […] (5a and 5b) ^3H-TTP incorporation after a 5 min incubation in the egg extract.
# as §2
# The DNA synthesis was determined by autoradiography as previously described in Materials and Methods.
# [5] = 10 μM H2O2, 15 min and 1 hr exposures, 5 min incubation in egg extract
# [6] = 10 μM H2O2, 15 min and 1 hr exposures, 15 min incubation in egg extract
# [7] = 50 μM H2O2, 15 min exposure, 2 and 3 hr incubation in egg extract (combined)
# [8] = 50 μM H2O2, 15 min exposure, 5 min incubation in egg extract
# [9] = 50 μM H2O2, 15 min exposure, 15 min incubation in egg extract
# [10] = 50 μM H2O2, 1 hr exposure, 2 and 3 hr incubation in egg extract (combined)
# [11] = 50 μM H2O2, 1 hr exposure, 5 min incubation in egg extract
# [12] = 50 μM H2O2, 1 hr exposure, 15 min incubation in egg extract
# [13] = 100 μM H2O2, 15 min and 1 hr exposures, 5 min incubation in egg extract
# [14] = 100 μM H2O2, 15 min exposure, 2 and 3 hr incubation in egg extract (combined)
# [15] = 100 μM H2O2, 15 min exposure, 5 min incubation in egg extract
# [16] = 100 μM H2O2, 15 min exposure, 15 min incubation in egg extract
# [17] = 100 μM H2O2, 1 hr exposure, 2 and 3 hr incubation in egg extract (combined)
# [18] = 100 μM H2O2, 1 hr exposure, 5 min incubation in egg extract
# [19] = 100 μM H2O2, 1 hr exposure, 15 min incubation in egg extract
# [20] = 50 μM H2O2, 15 min exposure, 3 hr incubation in egg extract
# [21] = 50 μM H2O2, 1 hr exposure, 2 hr incubation in egg extract
# [22] = 50 μM H2O2, 1 hr exposure, 3 hr incubation in egg extract
# [23] = 100 μM H2O2, 15 min exposure, 3 hr incubation in egg extract
# [24] = 100 μM H2O2, 1 hr exposure, 2 hr incubation in egg extract
# [25] = 100 μM H2O2, 1 hr exposure, 3 hr incubation in egg extract
smiles,measurement,setting,value
"OO [H2O2, hydrogen peroxide]","lipid peroxidation (MDA and hydroxyalkenals), means compared to the untreated control sperm","[1]; 10, 50 and 100 μM H2O2, 1 hr exposure",significantly different
same,"lipid peroxidation (MDA and hydroxyalkenals), means compared to the untreated control sperm","[1]; 50 and 100 μM H2O2, 15 min exposure",significantly different
same,H2O2 concentration at which induction of DNA fragmentation was significant,[2],200 µM
same,recondensed sperm,"[3]; 10 μM H2O2, 15 min and 1 hr exposure, 2 and 3 hr incubation in egg extract (combined)",98±2%
same,partially decondensed sperm,[3]; [5],Approximately 30%
same,recondensed sperm,[3]; [5],No recondensed sperm were observed
same,sperm showing no decondensation,[3]; [5],35-40%
same,fully decondensed sperm,[3]; [6],Approximately 94%
same,fully decondensed sperm,"[3]; 10 μM H2O2, 15 min exposure, 5 min incubation in egg extract",Approximately 28±4%
same,recondensed sperm,"[3]; 10 μM H2O2, 15 min exposure, 15 min incubation in egg extract",No recondensed sperm were observed
same,fully decondensed sperm,"[3]; 10 μM H2O2, 1 hr exposure, 5 min incubation in egg extract",~30±6%
same,non-decondensed sperm,"[3]; 10 μM H2O2, both time points (15 min and 1 hr exposure), 15 min incubation in egg extract",Approximately 5%
same,hyper-decondensed sperm,"[3]; 10 μM H2O2, 2 and 3 hr incubation in egg extract (combined)",No sperm were hyper-decondensed
same,hyperdecondensed sperm,"[3]; 10 μM H2O2, 5 min incubation in egg extract",No sperm were hyperdecondensed
same,hyperdecondensed sperm,"[3]; 10 μM H2O2, 15 min incubation in egg extract",No sperm were hyperdecondensed
same,partially decondensed sperm,"[3]; 50 μM H2O2, 15 min and 1 hr exposures, 5 min incubation in egg extract",Approximately 1%
same,hyper-decondensed sperm,[3]; [7],35.2%
same,recondensed sperm,[3]; [7],66±2.3%
same,fully decondensed sperm,[3]; [8],43.3±3.7%
same,hyperdecondensed sperm,[3]; [8],38.4%
same,non-decondensed sperm,[3]; [8],15±3%
same,recondensed sperm,[3]; [8],No recondensed sperm were observed
same,fully decondensed sperm,[3]; [9],53±3%
same,hyperdecondensed sperm,[3]; [9],45.2%
same,recondensed sperm,[3]; [9],No recondensed sperm were observed
same,hyper-decondensed sperm,[3]; [10],30±2%
same,recondensed sperm,[3]; [10],70±3%
same,fully decondensed sperm,[3]; [11],46.6±6%
same,hyperdecondensed sperm,[3]; [11],31±−4% and 31±4%
same,non-decondensed sperm,[3]; [11],18±4%
same,recondensed sperm,[3]; [11],5±3%
same,fully decondensed sperm,[3]; [12],58±2%
same,hyperdecondensed sperm,[3]; [12],30±2%
same,recondensed sperm,[3]; [12],10±2%
same,non-decondensed sperm,[3]; [13],10±2%
same,partially decondensed sperm,[3]; [13],Approximately 1%
same,hyper-decondensed sperm,[3]; [14],45±2%
same,recondensed sperm,[3]; [14],57±2%
same,fully decondensed sperm,[3]; [15],56.6±4.7%
same,hyperdecondensed sperm,[3]; [15],26%
same,recondensed sperm,[3]; [15],8±2%
same,fully decondensed sperm,[3]; [16],48±1.5%
same,hyperdecondensed sperm,[3]; [16],37%
same,recondensed sperm,[3]; [16],15±3%
same,hyper-decondensed sperm,[3]; [17],45±3%
same,recondensed sperm,[3]; [17],54±2%
same,fully decondensed sperm,[3]; [18],64.5±4.5%
same,hyperdecondensed sperm,[3]; [18],11±4%
same,recondensed sperm,[3]; [18],15±2%
same,fully decondensed sperm,[3]; [19],47±2%
same,hyperdecondensed sperm,[3]; [19],33±3.5%
same,recondensed sperm,[3]; [19],20±2%
same,sperm nuclei with abnormal recondensation and nuclear arrest in the hyperdecondensed state,"[3]; 50 and 100 μM H2O2, 3 hr incubation in egg extract",33-42%
same,non-decondensed sperm,"[3]; any other H2O2 concentrations (50, 100 μM) at any of the time points, 15 min incubation in egg extract",no sperm were non-decondensed
same,3H-TTP incorporation,"[4]; 10 μM H2O2, 15 min and 1 hr exposure, 2 and 3 hr incubations in frog egg extract",normal ^3H-TTP incorporation
same,sperm positive for 3H-TTP incorporation,[4]; [5],No sperm were positive for ^3H-TTP incorporation; also recorded: no incorporation of ^3H-TTP
same,sperm positive for 3H-TTP incorporation,[4]; [6],No sperm were positive for ^3H-TTP incorporation; also recorded: no incorporation of ^3H-TTP
same,sperm heavily labeled by 3H-TTP,"[4]; 10 μM H2O2, 15 min and 1 hr exposures, 2 hr incubation in egg extract",99±1%
same,sperm heavily labeled by 3H-TTP,"[4]; 10 μM H2O2, 15 min and 1 hr exposures, 3 hr incubation in egg extract",98±2%
same,sperm with medium 3H-TTP labeling,"[4]; 50 μM H2O2, 15 min exposure (first of '50 and 100 μM for 15 min and 1 hr, respectively'), 2 hr incubation in egg extract",approximately 14.5±4%
same,sperm heavily labeled by 3H-TTP,[4]; [8],10±3.5%
same,sperm with medium 3H-TTP labeling,[4]; [8],18±3.5%
same,sperm heavily labeled by 3H-TTP,[4]; [9],10±2%
same,sperm with medium 3H-TTP labeling,[4]; [9],approximately 20±3%
same,sperm heavily labeled by 3H-TTP,"[4]; 50 μM H2O2, 15 min exposure, 2 hr incubation in egg extract",85±5%
same,sperm heavily labeled by 3H-TTP,[4]; [20],approximately 78±6%
same,sperm with medium 3H-TTP labeling,[4]; [20],approximately 16.5±2%
same,sperm heavily labeled by 3H-TTP,[4]; [11],28±2%
same,sperm with medium 3H-TTP labeling,[4]; [11],36±3%
same,sperm heavily labeled by 3H-TTP,[4]; [12],17.5±7.5%
same,sperm with medium 3H-TTP labeling,[4]; [12],Approximately 21±5%
same,sperm heavily labeled by 3H-TTP,[4]; [21],56.5±3%
same,sperm with medium 3H-TTP labeling,[4]; [21],Approximately 36±2%
same,sperm heavily labeled by 3H-TTP,[4]; [22],Approximately 75±3%
same,sperm with medium 3H-TTP labeling,[4]; [22],Approximately 25±3%
same,sperm with medium 3H-TTP labeling,"[4]; 100 μM H2O2 (second of '50 and 100 μM for 15 min and 1 hr, respectively'), 2 hr incubation in egg extract",~43.5±5%
same,sperm heavily labeled by 3H-TTP,[4]; [15],15±5%
same,sperm with medium 3H-TTP labeling,[4]; [15],Approximately 25±5%
same,sperm heavily labeled by 3H-TTP,[4]; [16],50±5%
same,sperm with medium 3H-TTP labeling,[4]; [16],~30±10%
same,sperm heavily labeled by 3H-TTP,"[4]; 100 μM H2O2, 15 min exposure, 2 hr incubation in egg extract",Approximately 64±2%
same,sperm heavily labeled by 3H-TTP,[4]; [23],~85±5%
same,sperm with medium 3H-TTP labeling,[4]; [23],~14.5±3%
same,sperm heavily labeled by 3H-TTP,[4]; [18],31±3%
same,sperm with medium 3H-TTP labeling,[4]; [18],~48±2%
same,sperm heavily labeled by 3H-TTP,[4]; [19],45±9%
same,sperm with medium 3H-TTP labeling,[4]; [19],~37±9%
same,sperm heavily labeled by 3H-TTP,[4]; [24],~71±3%
same,sperm with medium 3H-TTP labeling,[4]; [24],~28.5±2.5%
same,sperm heavily labeled by 3H-TTP,[4]; [25],~60±4%
same,sperm with medium 3H-TTP labeling,[4]; [25],~40±4%

# Reference: US20090053722A1, “SDAD ASSAY AND USES THEREOF” (priority 2007, published 2009)
